The source of these data is a melting point compilation (Tetko et al.; mined from patent text by program, amines drawn as free bases though some values may be those of a salt).

What is called melting point is the temperature, or range, at which the solid turns liquid. For `CCCCCCCCC#Cc1ccc(C(=O)O)cc1`, the melting point stood at 103 °C.
With `COc1cc2cc(C3=NNC(=O)CC3)sc2cc1OC` the figure was 254 to 256 °C; with `CC1CC(=O)NN=C1c1ccc2c(c1)NC(=O)C(C)O2` (centres undefined), 271 to 272 °C; with `COc1ccc(C2=CCN(Cc3n[nH]c4c(F)c(F)ccc34)CC2)cc1`, 195 to 197 °C.
Next, `CC(=O)Oc1cc(C)cc(C(=O)O)c1C`: 153 to 154 °C; `CCNC(=O)Nc1scc(-c2ccccc2)c1C(=O)OCC`: 109 to 112 °C.
Next, `FC(F)(F)CSc1nc2cc(Cl)ccc2[nH]1`: 127 to 129 °C; `COc1ccc(C(=O)CCC(=O)O)cc1N`: 136 to 137 °C.
In the case of `CCSC(C#N)C1=NCCc2cc(OC)c(OC)cc21` (centres undefined), the melting point fell in the range of 113 to 115 °C.
Take `O=C(C=NO)Nc1ccc(F)c(F)c1`: the melting point was in the range of 148 to 150 °C.
Next, `N#Cc1ccc(-c2cncc(OC3SCC(O)C(O)C3O)c2)cc1F` (centres undefined): 214 °C; `Cc1nc(C(O)(c2nc(C)c(C)s2)C(C)(C)C)sc1C`: 91 to 92 °C.
With `COC(=O)COc1ccc(C(=O)NN(C)C(=O)c2ccc(C(N)=S)cc2)cc1` the figure was 169 to 170 °C; with `CC1(C)CC(=O)c2cc(SCc3ccccc3)[nH]c2C1`, 148 to 150 °C; with `Cc1cc(CCCOc2c(C)cc(C(=N)NO)cc2C)on1`, 129 to 130 °C.
Next, `Cc1ccc2sc3ncc(C(=O)Nc4nnn[nH]4)c(=O)n3c2c1`: above 300 °C; `O=C(NS(=O)(=O)c1ccc(Cl)cc1)C1=NN(c2ccc(Cl)cc2)C(c2ccccc2)C1` (centres undefined): 226 to 229 °C.
`CC(Oc1ccc(O)cc1)C(=O)Nc1ccc(OC(F)(F)F)cc1` (centres undefined) gave a melting point of 74.5 to 75 °C.
Next, `CCN(CC)C(=O)c1c(C=O)cccc1[Si](C)(C)C`: 63.5 to 65.5 °C.
With `Cc1ccc(CC2CCN(CCOc3ccc4cc(O)ccc4c3)CC2)cc1` the figure was 164 to 166 °C; with `C[C@@H](NC(=O)[C@@H](NC(=O)[C@H](C/C=C/c1ccc(-c2ccccc2)c(F)c1)CC(=O)OC(C)(C)C)C(C)(C)C)c1ccccc1`, 165 to 168 °C; with `CC12CCC(C1)C1(C)Oc3ccc(C(=O)COc4ccc(C(=O)O)c(O)c4)cc3C21C` (centres undefined), 186 to 188 °C.
With `CC1c2cc(C(C)(C)C)cc(C(C)(C)C)c2OP(Cl)Oc2c1cc(C(C)(C)C)cc2C(C)(C)C` (centres undefined) the figure was 194 to 198 °C; with `CC(=O)Nc1cc([N+](=O)[O-])c(Cl)cc1F`, 125 to 126 °C; with `N#Cc1ccc2[nH]nc(-c3ccccc3)c2c1`, 150 to 151 °C.
In turn, `CC(=O)c1cc2c(cc1C)C(C)(C)CCC2(C)C` yielded a melting point of 54 to 57 °C.
Consider `Cc1oc(-c2ccccc2)nc1CCOc1ccc(Cn2cc(CCC(=O)O)c(-c3ccccc3)c2)cc1`, for which the melting point fell in the range of 147 to 148 °C.
With `CC1(C)CCOC1(O)C(Cc1ccc(Cl)cc1)n1cncn1` (centres undefined), the melting point amounted to 98 °C.
With `CSc1ccc(C(CC2CCCC2)C(=O)Nc2ccc([N+](=O)[O-])cn2)cc1C(F)(F)F` (centres undefined) the figure was 109 to 110 °C.
Next, `N#Cc1ccc2c(c1)S(=O)(=O)c1ccccc1C2=O`: 282 to 283 °C; `CC1(C)C=C(C(=O)NCCC#N)c2cc(C(F)(F)C(F)(F)F)ccc2O1`: 163 to 164 °C.
Next, `CNc1nc(F)c(OC(F)F)c(Cl)n1`: 57 to 61 °C; `CN1CCC(C(=O)NO)(S(=O)(=O)c2ccc(Oc3ccc(Cl)cc3)cc2)CC1`: 52 °C; `C[C@H](NC(=O)c1cccc(NS(=O)(=O)CC2CN(C(c3ccc(Cl)cc3)c3ccc(Cl)cc3)C2)c1)C(N)=O`: 229 °C.
`COc1nc2c(N)nc3ccccc3c2n1Cc1ccccc1` registered a melting point of 240 to 242 °C.
With `CNC(=S)NCCSCc1nscc1Br` the figure was 62 to 63 °C; with `C[C@@H]1[C@@H](S(=O)(=O)c2ccccc2)[C@@H]2O[C@@H]2C[C@@H]1O`, 148 °C.
With `CC1(C)OCC(C(N)=O)CO1` the figure was 132 to 134 °C; with `CN(C)C1(c2cccc(F)c2)CCC2(OCCc3c2[nH]c2ccccc32)C(CNC(=O)C=Cc2cccc(-c3ccccc3)c2)C1` (centres undefined), 134 to 140 °C.
Next, `CC12CCC(=O)C=C1CCC1C2C2CC3(C(O)O2)C(C(=O)COC(=O)CC(CC(=O)O)c2ccc(O)cc2)CCC13` (centres undefined): 145 to 152 °C.
In turn, `CC(C)C[C@H](NC(=O)OCC1CCCCCC1)C(=O)N[C@@H](Cc1ccccc1)C(=O)CSCc1ccco1` yielded a melting point of 77 to 79 °C.
As to `NNC(=S)N1CCN(c2nc3cccccc-3n2)CC1`, the melting point was 224 to 228 °C.
Turning to `CC(=O)SCCC(=O)N1C(C(=O)O)CC2CCCCC21` (centres undefined), the melting point is 131 to 133 °C.
Next, `CC1(C)NC(=O)N(CC(CS(=O)(=O)C2(C(F)(F)F)C=CC(c3ccccc3)=CC2)N(O)C=O)C1=O` (centres undefined): 206 °C.
In turn, `Nc1ccc(-c2ncnn2-c2ccc(F)cc2)cc1` gave a melting point of 128 to 130 °C.
With `O=C(c1ccc(F)cc1)N1CC2CC2(c2ccc(Cl)cc2)C1` (centres undefined) the figure was 130 to 132 °C.
With `Nc1ccc(OCCCCCCCCCCOc2ccc(N)cc2)cc1` the figure was 70 to 71 °C.
Next, `Cc1ccc(S(=O)(=O)Nc2cc(C3CCCC3)c([N+](=O)[O-])cc2Br)cc1`: 122 °C.
Regarding `Cc1ccc2c(n1)C(C(N)=O)CCC2` (centres undefined), the melting point was determined as 114 °C.
Next, `COc1cc(OC)c2c(C)c(CCN3CCN(c4ccccc4F)CC3)c(=O)oc2c1`: 152 to 153 °C; `O=C(c1ccc(Nc2ccnc3cc(C(F)(F)F)ccc23)cc1)N1CCN(c2c(Cl)c(Cl)nc(Cl)c2Cl)CC1`: 222 to 224 °C.
With `CCc1c(C(F)(F)F)noc1NS(=O)(=O)c1ccccc1` the figure was 105 to 106 °C.
With `C=CCN1CC(C)N(C(c2cccc(O)c2)c2cc(C(=O)N(CC)CC)cs2)CC1C` (centres undefined) the figure was 108 to 112 °C; with `CCc1cnc(NC(=O)C(c2ccccc2)c2ccccc2)o1`, 148 to 149 °C.
In the case of `O=C(CBr)c1ccc(Cl)c(S(=O)(=O)Nc2ccccc2)c1`, the melting point is 154 °C.
Next, `CCCCCCCCCCCCc1cnn(C(C(=O)Nc2c(OC)cc(OC)cc2OC)c2ccccc2)c1` (centres undefined): 77 to 79 °C; `O=c1[nH]c(C(F)(F)F)c(Br)c(=O)n1-c1c(Cl)cc(Cl)cc1Cl`: 219 to 222 °C; `CN1C(=O)CC[C@]2(C)c3ccc(Sc4nc5cccc(Cl)c5s4)cc3CC[C@@H]12`: 90 to 91 °C.
`COC(=O)C(=CC(=CN(C)C)c1cc(OCc2ccccc2)ccc1[N+](=O)[O-])[N+](=O)[O-]` returned a melting point of 158 to 165 °C.
With `CC(=N)Nc1ccccc1N1CCOCC1` the figure was 140 to 141 °C.
Compound `CCCc1c(-c2cccnn2)ssc1=S` showed a melting point of 77 °C.
Compound `Cc1cc(-c2cccc(C(F)(F)F)c2)c2nc(OCC(F)(F)F)cnc2c1` registered a melting point of 46 to 48 °C.
With `O=c1ncc(Cl)cn1CSCc1ccccc1` the figure was 186 °C; with `OC1C2C=CC1C1N=NC21` (centres undefined), 128 °C; with `CS(=O)(=O)c1ccccc1-c1cc(F)cc(OCc2ccc3c(-c4ccoc4)cc(C#N)nc3c2)c1`, 186 to 187 °C.
For `CNC(=O)c1ccc(Nc2nc(Nc3cc4c(cc3OC)CCN(C(COC)COC)CC4)ncc2Cl)c(OC)c1`, the melting point fell in the range of 85 to 97 °C.
In turn, `Cc1cc(C)cc(Sc2cncc3sc(C(N)=O)cc23)c1` came in with a melting point of 177 to 179 °C.
With `CCOC(=O)c1c(Cn2cncn2)nc2ccc(Cl)cc2c1-c1ccccc1` the figure was 114 to 116 °C; with `CCCCCNC(=O)Nc1ccccc1C(=O)NCCC1CCN(C(c2ccccc2)c2ccccc2)CC1`, 124 to 127 °C.
With `O=c1[nH]c2ccc(Cl)cc2n1-c1ccc(Cl)cc1` the figure was 239 °C; with `Clc1ccc2c(c1)N=C(N1CCN(CC3CC3)CC1)c1ccccc1N2`, 148 to 151 °C.
With `CCOC(=O)c1ccc(NCCCCCCCc2ccccc2)cc1` the figure was 65 to 67 °C; with `O=C(O)C(=O)c1ccc(OCCCCSc2ccc3ccccc3c2)cc1`, 113 to 115 °C.
In the case of `NC(=S)Nc1ccc(Cl)c(Cl)c1Cl`, the melting point is 115 to 117 °C.
Next, `CC(C)(C)c1cc(C(=O)c2cccnc2Cl)cc(C(C)(C)C)c1O`: 135 to 137 °C.
Next, `COC(=O)CCCC(=O)c1ccc(OC)c(I)n1`: 111 °C.
With `NC(=O)c1nc(-c2cccc(O)c2)nc2c1[nH]c(=O)n2-c1ccc(C(F)(F)F)cc1` the figure was 360 to 364 °C.
In turn, `Oc1ccc(-c2c(Cl)c3cc(O)ccc3n2Cc2ccc(OCCN3CCCC3)cc2)cc1` had a melting point of 233 to 235 °C.
With `NCC(O)COc1ccc(OCC(O)CN)cc1` (centres undefined) the figure was 128 to 132 °C; with `CCOC(=O)C1=C(C)N2CCCC2=C(C(C)=O)C1c1ccccc1C#N` (centres undefined), 167 °C.
With `Cc1cc2c(NCc3ccc4c(c3)OCO4)nc(-c3ccc(C(=O)O)cc3)nc2s1` the figure was above 250 °C; with `Nc1ccc(SCC2CC2)cc1[N+](=O)[O-]`, 45 to 47 °C; with `COC(=O)C1Cc2sc3c(c2C1)C(c1ccccc1Cl)=NCC(N(C)C1(C)OCCO1)=N3` (centres undefined), 166 to 168 °C.
With `Cc1ccc(-c2nc(COc3ccc(CCCn4ccnc4)cc3)co2)s1` the figure was 83 to 84 °C; with `Cn1c(-c2ccc(Cl)cc2)c(C#N)c(Br)c1C(F)(F)F`, 126 to 129 °C.
In turn, `CCCCOc1cc(CCC(=O)O)n(Cc2ccc(Cl)cc2Cl)n1` returned a melting point of 123 to 124 °C.
Regarding `Cc1oc(C=Cc2ccccc2Cl)nc1CC(=O)O`, the melting point lay in the range of 148 to 149 °C.
Next, `Cc1c(OC(F)F)ccnc1CSc1nc2ccc(O)cc2[nH]1`: 214 to 215 °C; `CN1Cc2c(Cl)ncn2-c2cccc(Cl)c2C1=O`: 211 to 212 °C.
